{"source": "patent US9938232B2", "about": "“LED photoinitiators” (SUN CHEMICAL CORPORATION, priority 2014, dated 2018)", "key": {"[1]": {"assay": "UV-spectra measurement", "format": "physicochemical", "protocol": "Spectra were acquired using a Unicam UV-2 UV/VIS spectro-photometer. All absorption spectra were obtained using 1 cm cuvettes, scanning within the 200-800 nm range. Solutions were prepared in a 100 cm^3 volumetric flask, and, if required, subsequently diluted so that a maximum absorbance of less than 2 was obtained. From the absorption the molar extinction coefficient e was calculated in liter*mol^−1*cm^−1."}, "[2]": {"assay": "Solubility in water and organic solvents (observation)", "format": "physicochemical", "protocol": "After cooling, the pH of the solution was adjusted to 4 with about 100 ml of a 50 wt % aqueous solution of acetic acid to precipitate a yellow solid. The solid was collected by filtration and dissolved in a saturated aqueous solution (100 ml) of sodium carbonate. Insoluble material was removed by filtration and the pH of the filtrate was adjusted to 5 to 6 with aqueous acetic acid to precipitate a yellow solid. The solid was collected by filtration and re-crystallized from 130 ml ethanol."}, "[3]": {"assay": "Solubility in multifunctional acrylates", "format": "physicochemical", "conditions": "10 and 20 weight % in PPTTA, TMPTA and EO-TMPTA, stirred 10 minutes at 45° C.", "protocol": "• Mn: 1050 Da, Mw 1360 Da • IR: v [cm-1]: 3318, 2930, 2861, 1716 (s), 1641, 1590 (vs), 1525, 1450, 1364, 1284, 1228, 1146, 1068, 927, 826, 770 Solubility: • The product as obtained according to Example 10 was added to different multifunctional acrylates to check solubility. Propoxylated pentaerythritol tetraacrylate (SR 494 LM, Sartomer company) (PPTTA), trimethylol propane triacrylate (SR 351M, Sartomer company) (TMPTA) and ethoxylated trimethylol propane triacrylate (Ebecryl LEO 10501, Allnex company) (EO-TMPTA) were used. The compound of example 10 was added in amounts of 10 and 20 weight % to each of the acrylates and stirred for 10 minutes at 45° C. In all cases (even at 20 weight %), clear, intense yellow, transparent mixtures were obtained."}}}
{"smiles": "CN(C)c1ccc(C(=O)c2ccc(N(C)C)cc2C(=O)[O-])cc1.[K+]", "note": "[Example 6, 5-(dimethylamino)-2-[4-(dimethylamino)benzoyl]-benzoic acid potassium salt]", "values": [{"measurement": "UV-spectroscopy: λmax (H2O)", "setting": "[1]; in H2O", "value": 365, "unit": "nm"}, {"measurement": "Molar extinction coefficient", "setting": "[1]; in water", "value": 36192, "unit": "L/mol/cm"}, {"measurement": "Solubility in methylene chloride", "setting": "[2]; methylene chloride", "value": "limited solubility in methylene chloride"}, {"measurement": "Solubility in water", "setting": "[2]; water", "value": "good solubility in water"}]}
{"smiles": "CN(C)c1ccc(C(=O)c2ccc(N(C)C)cc2C(=O)O)cc1", "note": "[Example 2, 5-(dimethylamino)-2-[4-(dimethylamino)benzoyl]-benzoic acid]", "values": [{"measurement": "Solubility in DMSO", "setting": "[2]; DMSO", "value": "soluble in DMSO"}, {"measurement": "melting point", "value": "269 to 272", "unit": "°C"}]}
{"smiles": "CCCCOCC(COC(=O)c1cc(N(C)C)ccc1C(=O)c1ccc(N(C)C)cc1)OC(=O)NCCCCCCNC(=O)OC(COCCCC)COC(=O)c1cc(N(C)C)ccc1C(=O)c1ccc(N(C)C)cc1", "note": "(stereo not shown) [Example 10]", "values": [{"measurement": "Solubility in multifunctional acrylates", "setting": "[3]", "value": "very good solubility"}]}
